This note sets out measurements from article doi:10.1101/2025.06.29.662197v2 (biorxiv, 2026).

The IC50 is the concentration needed to halve the response being measured.

Common to all, as to type: biochemical
Assay [1] has as its target human PKR (Carna Bioscience # 05-156) (Homo sapiens, UniProt P19525). Kind of assay: LanthaScreen TR-FRET kinase assay, GFP-eIF2alpha. (In general: In TR-FRET formats the signal depends on donor and acceptor labels being close together.)
For assay [2], the target named is human HRI (Carna Bioscience # 05-154) (Homo sapiens, UniProt Q9BQI3). Put plainly: LanthaScreen TR-FRET kinase assay, GFP-eIF2alpha.
The target of assay [3] is human GCN2 (full length, purified; Carna Bioscience # 05-153) (Homo sapiens, UniProt Q9P2K8). Kind of assay: LanthaScreen TR-FRET kinase assay, GFP-eIF2alpha.
Assay [4] addresses full-length human GCN2 (N-terminal twin StrepII tag) (Homo sapiens, UniProt Q9P2K8). Put plainly: in vitro kinase assay, immunoblot of p-Ser51 eIF2alpha. The note with it: 100 uM ATP, 2 uM full-length eIF2alpha, 30 °C, 20 min, no tRNA. For orientation: A western blot detects proteins with antibodies after separation by electrophoresis.

A value given as a limit tells only on which side of the number the result lay.

Chain of human PKR (Carna Bioscience # 05-156) (P19525 2-551): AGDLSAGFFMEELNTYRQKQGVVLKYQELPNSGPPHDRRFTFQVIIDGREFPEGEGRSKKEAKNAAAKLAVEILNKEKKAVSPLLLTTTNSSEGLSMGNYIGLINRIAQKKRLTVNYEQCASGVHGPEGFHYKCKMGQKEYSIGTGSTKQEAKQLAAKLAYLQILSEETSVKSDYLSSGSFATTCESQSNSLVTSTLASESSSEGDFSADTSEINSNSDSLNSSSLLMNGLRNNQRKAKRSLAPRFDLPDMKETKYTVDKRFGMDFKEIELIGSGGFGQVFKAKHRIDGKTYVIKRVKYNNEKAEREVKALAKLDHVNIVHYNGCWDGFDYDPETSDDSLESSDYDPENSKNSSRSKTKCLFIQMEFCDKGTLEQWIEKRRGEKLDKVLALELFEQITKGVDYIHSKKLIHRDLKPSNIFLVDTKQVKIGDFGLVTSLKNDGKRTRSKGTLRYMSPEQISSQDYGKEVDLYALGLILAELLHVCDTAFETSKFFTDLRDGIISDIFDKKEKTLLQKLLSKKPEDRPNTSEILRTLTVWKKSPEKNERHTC
Chain of human GCN2 (full length, purified; Carna Bioscience # 05-153) (Q9P2K8 whole entry): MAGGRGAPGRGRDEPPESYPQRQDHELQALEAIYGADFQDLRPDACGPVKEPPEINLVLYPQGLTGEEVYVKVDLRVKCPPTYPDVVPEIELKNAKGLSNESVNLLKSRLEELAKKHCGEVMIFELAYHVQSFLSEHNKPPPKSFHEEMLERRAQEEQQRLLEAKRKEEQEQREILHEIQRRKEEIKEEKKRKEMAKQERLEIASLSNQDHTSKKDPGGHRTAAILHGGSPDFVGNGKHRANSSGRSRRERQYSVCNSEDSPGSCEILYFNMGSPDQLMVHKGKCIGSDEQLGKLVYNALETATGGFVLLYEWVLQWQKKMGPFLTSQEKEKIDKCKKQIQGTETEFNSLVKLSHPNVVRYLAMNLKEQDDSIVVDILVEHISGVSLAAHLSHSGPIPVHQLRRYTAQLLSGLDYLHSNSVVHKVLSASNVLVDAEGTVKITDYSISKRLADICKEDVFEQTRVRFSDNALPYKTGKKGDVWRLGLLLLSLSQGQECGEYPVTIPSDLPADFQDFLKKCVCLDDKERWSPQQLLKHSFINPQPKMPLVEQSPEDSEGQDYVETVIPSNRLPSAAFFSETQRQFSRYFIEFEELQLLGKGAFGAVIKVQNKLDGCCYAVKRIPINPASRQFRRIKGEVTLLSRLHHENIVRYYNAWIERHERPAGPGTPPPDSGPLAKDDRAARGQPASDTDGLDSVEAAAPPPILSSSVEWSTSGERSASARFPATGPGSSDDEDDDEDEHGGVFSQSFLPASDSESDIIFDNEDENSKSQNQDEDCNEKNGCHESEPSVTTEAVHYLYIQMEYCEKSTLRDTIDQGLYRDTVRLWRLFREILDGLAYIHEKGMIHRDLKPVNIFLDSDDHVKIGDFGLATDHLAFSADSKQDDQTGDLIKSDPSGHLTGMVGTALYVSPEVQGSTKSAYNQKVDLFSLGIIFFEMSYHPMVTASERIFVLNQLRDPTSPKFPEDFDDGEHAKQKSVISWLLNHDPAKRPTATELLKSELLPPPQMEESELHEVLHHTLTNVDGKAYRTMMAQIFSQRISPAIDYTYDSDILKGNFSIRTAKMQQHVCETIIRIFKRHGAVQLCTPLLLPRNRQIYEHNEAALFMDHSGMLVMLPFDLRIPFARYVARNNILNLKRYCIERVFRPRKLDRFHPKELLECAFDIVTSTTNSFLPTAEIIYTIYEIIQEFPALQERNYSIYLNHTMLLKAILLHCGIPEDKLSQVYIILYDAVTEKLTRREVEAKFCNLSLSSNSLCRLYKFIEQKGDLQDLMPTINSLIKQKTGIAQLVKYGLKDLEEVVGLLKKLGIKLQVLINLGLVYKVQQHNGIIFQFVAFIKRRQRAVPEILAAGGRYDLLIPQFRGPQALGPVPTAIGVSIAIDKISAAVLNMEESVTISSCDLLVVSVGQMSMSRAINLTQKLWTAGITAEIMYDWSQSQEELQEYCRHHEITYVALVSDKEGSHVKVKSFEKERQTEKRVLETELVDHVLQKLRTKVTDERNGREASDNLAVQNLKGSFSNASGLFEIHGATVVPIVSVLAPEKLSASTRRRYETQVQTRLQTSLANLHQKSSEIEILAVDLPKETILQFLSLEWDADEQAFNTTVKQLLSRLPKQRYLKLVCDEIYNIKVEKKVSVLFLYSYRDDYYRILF
Chain of human HRI (Carna Bioscience # 05-154) (Q9BQI3 whole entry): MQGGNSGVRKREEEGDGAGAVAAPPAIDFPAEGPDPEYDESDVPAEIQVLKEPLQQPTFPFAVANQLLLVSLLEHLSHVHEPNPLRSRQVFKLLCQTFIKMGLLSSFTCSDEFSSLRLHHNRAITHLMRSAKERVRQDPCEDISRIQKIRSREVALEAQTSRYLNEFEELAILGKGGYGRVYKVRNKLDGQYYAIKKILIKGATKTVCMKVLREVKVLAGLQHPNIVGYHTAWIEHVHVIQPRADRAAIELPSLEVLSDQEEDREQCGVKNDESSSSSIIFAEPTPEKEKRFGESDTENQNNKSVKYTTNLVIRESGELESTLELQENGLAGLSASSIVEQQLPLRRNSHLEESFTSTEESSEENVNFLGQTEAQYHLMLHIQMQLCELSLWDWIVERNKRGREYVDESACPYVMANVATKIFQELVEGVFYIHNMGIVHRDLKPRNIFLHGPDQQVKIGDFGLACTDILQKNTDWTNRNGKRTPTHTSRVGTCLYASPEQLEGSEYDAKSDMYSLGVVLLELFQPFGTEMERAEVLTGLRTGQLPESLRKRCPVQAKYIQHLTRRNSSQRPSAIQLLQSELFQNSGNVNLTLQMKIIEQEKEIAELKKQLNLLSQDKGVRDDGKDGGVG
Chain of full-length human GCN2 (N-terminal twin StrepII tag) (Q9P2K8 whole entry): as the sequence (Q9P2K8 whole entry) above

In the case of `COc1ncc(Cl)cc1S(=O)(=O)Nc1ccc(F)c(C#Cc2cnc(N)nc2)c1F` [GCN2iB], the values for the half-maximal inhibitory concentration (IC50) in assay [1], in assay [2] and in assay [3] were 3.26 µM, 0.00276 µM and 0.00155 µM, respectively.
As for `Cc1nn(-c2ccccc2)c2sc(C(=O)Nc3ccc(S(=O)(=O)NCc4ccco4)cc3)cc12` [compound 18, N-(4-{[(furan-2-yl)methyl]sulfamoyl}phenyl)-3-methyl-1-phenyl-1H-thieno[2,3-c]pyrazole-5-carboxamide], the concentration for half-maximal inhibition (IC50) is 4.5 µM in assay [1] and more than 3 µM in assay [3].
Consider `Cc1nc(N)sc1-c1csc(Nc2ncccn2)n1` [compound 20, 4’-methyl-N∼2∼-2-pyrimidinyl-4,5’-bi-1,3-thiazole-2,2’-diamine], for which the concentration for half-maximal inhibition (IC50) was 3.75 µM in assay [1] and more than 3 µM in assay [3]. The fold activation in assay [4] was ~ 40 fold.
`CS(=O)(=O)c1ncc(-c2ccc(Br)cc2)cn1` [compound 21, 5-(4-bromophenyl)-2-(methylsulfonyl)pyrimidine] gave an IC50 in assay [3] of more than 3 µM.
